Laboratory results from PubChem BioAssay (NCI).
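Exposure lasted 48 hours, with cells grown in 96-well plates and compounds tested at five concentrations. GI50 marks 50% less growth. The concentration for full growth arrest is given as TGI.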

Key:
Assay in all cases: NCI anticancer screen, dose series, 48 h
[1] = test system: 786-0 renal
[2] = test system: A498 renal
[3] = test system: A549 NSCLC
[4] = test system: ACHN renal
[5] = test system: BT-549 breast
[6] = test system: CAKI-1 renal
[7] = test system: CCRF-CEM leukemia
[8] = test system: COLO 205 colon
[9] = test system: DU-145 prostate
[10] = test system: HCC-2998 colon
[11] = test system: HCT-116 colon
[12] = test system: HCT-15 colon
[13] = test system: HL-60(TB) leukemia
[14] = test system: HOP-62 NSCLC
[15] = test system: HOP-92 NSCLC
[16] = test system: HS 578T breast
[17] = test system: HT29 colon
[18] = test system: IGROV1 ovarian
[19] = test system: K-562 leukemia
[20] = test system: KM12 colon
[21] = test system: LOX IMVI melanoma
[22] = test system: M14 melanoma
[23] = test system: MALME-3M melanoma
[24] = test system: MCF7 breast
[25] = test system: MDA-MB-231 breast
[26] = test system: MDA-MB-435
[27] = test system: MOLT-4 leukemia
[28] = test system: NCI-H226 lung
[29] = test system: NCI-H23 lung
[30] = test system: NCI-H460 lung
[31] = test system: NCI-H522 lung
[32] = test system: NCI/ADR-RES ovarian
[33] = test system: OVCAR-3 ovarian
[34] = test system: OVCAR-4 ovarian
[35] = test system: OVCAR-5 ovarian
[36] = test system: OVCAR-8 ovarian
[37] = test system: PC-3 prostate
[38] = test system: RPMI-8226 leukemia
[39] = test system: RXF 393 renal
[40] = test system: SF-268 CNS
[41] = test system: SF-295 CNS
[42] = test system: SF-539 CNS
[43] = test system: SK-MEL-2 melanoma
[44] = test system: SK-MEL-28 melanoma
[45] = test system: SK-MEL-5 melanoma
[46] = test system: SK-OV-3 ovarian
[47] = test system: SN12C renal
[48] = test system: SNB-19 CNS
[49] = test system: SNB-75 CNS
[50] = test system: SR leukemia
[51] = test system: SW-620 colon
[52] = test system: T-47D breast
[53] = test system: TK-10 renal
[54] = test system: U251 CNS
[55] = test system: UACC-257 melanoma
[56] = test system: UACC-62 melanoma
[57] = test system: UO-31 renal
[58] = test system: EKVX NSCLC

Fc1ccc2nc(-c3cc(-c4ccc5c(c4)OCO5)n[nH]3)[nH]c2c1
GI50 [1]: 5.89 µM
TGI [1]: > 80 µM
GI50 [2]: 3.27 µM
TGI [2]: > 100 µM
GI50 [3]: 2.51 µM
TGI [3]: 13.8 µM
GI50 [4]: 2.74 µM
TGI [4]: > 25.4 µM
GI50 [5]: 1.48 µM
TGI [5]: > 25.9 µM
GI50 [6]: 2.44 µM
TGI [6]: > 55.7 µM
GI50 [7]: 2.62 µM
TGI [7]: > 44.7 µM
GI50 [8]: 9.22 µM
TGI [8]: > 66.1 µM
GI50 [9]: 5.84 µM
TGI [9]: > 53.1 µM
GI50 [10]: 5.56 µM
TGI [10]: > 72.8 µM
GI50 [11]: 3.51 µM
TGI [11]: > 32.5 µM
GI50 [12]: 3.27 µM
TGI [12]: > 42.4 µM
GI50 [13]: 3.09 µM
TGI [13]: 55.5 µM
GI50 [14]: 5.44 µM
TGI [14]: > 43.4 µM
GI50 [15]: 1.87 µM
TGI [15]: 8.79 µM
GI50 [16]: 9.53 µM
TGI [16]: > 100 µM
GI50 [17]: 5.06 µM
TGI [17]: > 37.8 µM
GI50 [18]: 3.79 µM
TGI [18]: > 100 µM
GI50 [19]: 4.35 µM
TGI [19]: > 100 µM
GI50 [20]: 2.49 µM
TGI [20]: > 32 µM
GI50 [21]: 2.18 µM
TGI [21]: 10.4 µM
GI50 [22]: 2.78 µM
TGI [22]: > 32.5 µM
GI50 [23]: 2.75 µM
TGI [23]: > 100 µM
GI50 [24]: 3.84 µM
TGI [24]: > 100 µM
GI50 [25]: 2.01 µM
TGI [25]: 6.59 µM
GI50 [26]: 4.49 µM
TGI [26]: > 71.7 µM
GI50 [27]: 2.56 µM
TGI [27]: > 69.4 µM
GI50 [28]: 3.92 µM
TGI [28]: 40.5 µM
GI50 [29]: 6.58 µM
TGI [29]: > 93.8 µM
GI50 [30]: 4.22 µM
TGI [30]: > 40.2 µM
GI50 [31]: 2.61 µM
TGI [31]: 13 µM
GI50 [32]: 3.99 µM
TGI [32]: > 100 µM
GI50 [33]: 3.29 µM
TGI [33]: 18.3 µM
GI50 [34]: 1.37 µM
TGI [34]: 4.8 µM
GI50 [35]: 35.5 µM
TGI [35]: > 100 µM
GI50 [36]: 2.99 µM
TGI [36]: 16 µM
GI50 [37]: 3.61 µM
TGI [37]: > 82.3 µM
GI50 [38]: 1.17 µM
TGI [38]: 8.26 µM
GI50 [39]: 2.81 µM
TGI [39]: 32.1 µM
GI50 [40]: 5.22 µM
TGI [40]: > 54.9 µM
GI50 [41]: 4.99 µM
TGI [41]: > 81.3 µM
GI50 [42]: 3.24 µM
TGI [42]: 31.2 µM
GI50 [43]: 2.87 µM
TGI [43]: 17.1 µM
GI50 [44]: 8.61 µM
TGI [44]: 53.2 µM
GI50 [45]: 1.56 µM
TGI [45]: 3.14 µM
GI50 [46]: 7.95 µM
TGI [46]: 26.5 µM
GI50 [47]: 4.59 µM
TGI [47]: > 100 µM
GI50 [48]: > 32.5 µM
TGI [48]: > 100 µM
GI50 [49]: 2.8 µM
TGI [49]: 13.8 µM
GI50 [50]: 3.58 µM
TGI [50]: > 100 µM
GI50 [51]: 5.68 µM
TGI [51]: > 43.1 µM
GI50 [52]: 3.31 µM
TGI [52]: 52.1 µM
GI50 [53]: 7.3 µM
TGI [53]: > 45.1 µM
GI50 [54]: 2.49 µM
TGI [54]: > 35.8 µM
GI50 [55]: 8.91 µM
TGI [55]: > 100 µM
GI50 [56]: 4.37 µM
TGI [56]: > 52.2 µM
GI50 [57]: 2.5 µM
TGI [57]: > 24 µM

COc1cccc2c(=O)c3c(sc12)c(NCCCNCCO)nc1ccccc13
GI50 [1]: 1.75 µM
TGI [1]: 3.25 µM
GI50 [2]: 1.56 µM
TGI [2]: 3.3 µM
GI50 [3]: 1.42 µM
TGI [3]: 3.11 µM
GI50 [4]: 1.35 µM
TGI [4]: 2.67 µM
GI50 [5]: 5.29 µM
TGI [5]: 18.6 µM
GI50 [6]: 1.18 µM
TGI [6]: 2.5 µM
GI50 [7]: 1.53 µM
TGI [7]: 3.18 µM
GI50 [8]: 1.45 µM
TGI [8]: 3.09 µM
GI50 [9]: 1.65 µM
TGI [9]: 3.11 µM
GI50 [58]: 1.52 µM
TGI [58]: 3.05 µM
GI50 [10]: 1.59 µM
TGI [10]: 3.21 µM
GI50 [11]: 1.41 µM
TGI [11]: 2.74 µM
GI50 [12]: 1.51 µM
TGI [12]: 3.02 µM
GI50 [13]: 1.73 µM
TGI [13]: 3.5 µM
GI50 [14]: 1.2 µM
TGI [14]: 2.81 µM
GI50 [15]: 1.32 µM
TGI [15]: 13.1 µM
GI50 [16]: 1.65 µM
TGI [16]: 4.07 µM
GI50 [17]: 1.54 µM
TGI [17]: 3.75 µM
GI50 [18]: 1.16 µM
TGI [18]: 2.58 µM
GI50 [19]: 1.42 µM
TGI [19]: 3.68 µM
GI50 [20]: 1.72 µM
TGI [20]: 3.23 µM
GI50 [21]: 1.48 µM
TGI [21]: 2.96 µM
GI50 [22]: 1.7 µM
TGI [22]: 3.22 µM
GI50 [23]: 1.64 µM
TGI [23]: 3.15 µM
GI50 [24]: 1.46 µM
TGI [24]: 3 µM
GI50 [25]: 1.35 µM
TGI [25]: 2.86 µM
GI50 [26]: 1.72 µM
TGI [26]: 3.2 µM
GI50 [27]: 1.58 µM
TGI [27]: 3.31 µM
GI50 [28]: 1.6 µM
TGI [28]: 3.46 µM
GI50 [29]: 1.64 µM
TGI [29]: 3.27 µM
GI50 [30]: 1.54 µM
TGI [30]: 3.15 µM
GI50 [31]: 1.58 µM
TGI [31]: 3.45 µM
GI50 [32]: 1.81 µM
TGI [32]: 3.94 µM
GI50 [33]: 1.64 µM
TGI [33]: 3.16 µM
GI50 [34]: 1.63 µM
TGI [34]: 3.38 µM
GI50 [35]: 1.58 µM
TGI [35]: 3.16 µM
GI50 [36]: 1.78 µM
TGI [36]: 3.97 µM
GI50 [37]: 1.23 µM
TGI [37]: 2.7 µM
GI50 [38]: 1.73 µM
TGI [38]: 3.71 µM
GI50 [39]: 1.46 µM
TGI [39]: 2.84 µM
GI50 [40]: 1.59 µM
TGI [40]: 3.33 µM
GI50 [41]: 1.71 µM
TGI [41]: 3.24 µM
GI50 [42]: 1.68 µM
TGI [42]: 3.1 µM
GI50 [43]: 1.83 µM
TGI [43]: 3.74 µM
GI50 [44]: 1.9 µM
TGI [44]: 3.46 µM
GI50 [45]: 1.69 µM
TGI [45]: 3.11 µM
GI50 [46]: 3.39 µM
TGI [46]: 19.4 µM
GI50 [47]: 1.51 µM
TGI [47]: 3.06 µM
GI50 [49]: 0.964 µM
TGI [49]: 7.44 µM
GI50 [50]: 1.45 µM
TGI [50]: 3.83 µM
GI50 [51]: 1.38 µM
TGI [51]: 2.9 µM
GI50 [52]: 1.48 µM
TGI [52]: 3.48 µM
GI50 [54]: 1.53 µM
TGI [54]: 3.02 µM
GI50 [55]: 1.94 µM
TGI [55]: 3.79 µM
GI50 [56]: 1.6 µM
TGI [56]: 3.03 µM
GI50 [57]: 1.03 µM
TGI [57]: 2.28 µM
